Measurements: US20220202743A1, “PHARMACEUTICAL COMPOSITION FOR PREVENTING OR TREATING DEGENERATIVE BRAIN DISEASE USING AUTOPHAGY ACTIVATION” (VASTHERA CO. LTD., priority 2019, published 2022)
Like-named read-outs stand apart in the source and are kept apart here.

Legend:
[1] = system: huntingtin; conditions: mouse model; cited from earlier work
[2] = system: HUVECs; assay type: cell-based
Excerpt: In order to visualize the change from neutral autophagosomes to acidic autophagosomes based on the different pH stabilities between mRFP-LC3 and GFP-LC3, LC3 double tagged with mRFP/mCherry-GFP may be used. The fluorescence of mRFP is relatively stable in rososomes, but the fluorescence of GFP is unstable in acidic substances.

[3] = system: LC3-II and p62; assay: Time-dependent immunoblotting of LC3-II and p62 (autophagic flux); conditions: immunoblotting 24-72 hours, FIG. 1D
Protocol: In order to investigate whether the pharmaceutical composition triggers protein turnover and motility of autophagy, various methods available were used to detect autophagic degradation and to monitor autophagic flux. First, LC3-II and p62 levels were measured by a basic time-dependent immunoblotting method as a method of examining how many autophagy substrates were degraded in a lysosome-dependent manner. Since LC3-II and p62 are only selectively degraded during autophagy, the degradation thereof is widely used to evaluate autophagic flux.

[4] = system: LC3; assay: LC3 immunofluorescence staining; assay type: cell-based; conditions: for LC3 induction in the cytoplasm: LC3 immunofluorescence, FIG. 1A, versus untreated control
[5] = system: autophagic vacuoles; assay: MDC fluorescence staining of autophagic vacuoles; assay type: cell-based; conditions: FIG. 1C, versus untreated control
[6] = system: AMPK/mTOR/S6K signaling; assay: Immunoblotting of AMPK/mTOR/S6K signaling; assay type: cell-based
Excerpt: The AMPK-mTOR canonical pathway may be activated by generating insufficient cellular energy, and autophagy is induced.

[7] = system: autophagy; conditions: Johns Hopkins Drug Library, 2,386 compounds
[8] = system: lysosomes; assay: Lysosomal activity by acridine orange staining; assay type: cell-based; conditions: FIG. 1G
[9] = system: TFEB; assay: EGFP-TFEB nuclear translocation; assay type: cell-based; conditions: HUVECs with EGFP-TFEB plasmid, 2 to 24 hours, FIG. 2E
Excerpt: Recently, transcription factor EB (TFEB), a major modulator of autophagy induction and lysosome biogenesis, has been known to communicate with the mTOR signaling pathway.

[10] = system: Hela cells; assay: Western blotting of LC3-II in wild-type and TFEB-deficient Hela cells; assay type: cell-based; conditions: FIG. 2F
[11] = molecular target: VDAC1 (Homo sapiens, UniProt P21796); conditions: DARTS, FIG. 3A
Chain of VDAC1 (P21796 whole entry, species assumed): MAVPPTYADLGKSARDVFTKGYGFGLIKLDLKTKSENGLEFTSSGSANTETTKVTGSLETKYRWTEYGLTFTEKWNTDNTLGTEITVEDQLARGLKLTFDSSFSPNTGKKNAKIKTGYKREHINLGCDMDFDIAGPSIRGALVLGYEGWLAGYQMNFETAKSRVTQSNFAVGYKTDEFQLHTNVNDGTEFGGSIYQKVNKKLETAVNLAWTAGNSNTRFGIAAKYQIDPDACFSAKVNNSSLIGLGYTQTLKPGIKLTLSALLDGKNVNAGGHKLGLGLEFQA

[12] = system: AMPK/mTOR/S6K signaling; assay: AMPK/mTOR/S6K signaling in wild-type and VDAC1−/− MEFs; assay type: cell-based, mouse; conditions: FIG. 3F
[13] = system: EGFP-LC3 puncta; assay: EGFP-LC3 puncta in wild-type and VDAC1−/− MEFs; assay type: cell-based, mouse; conditions: FIG. 3G
[14] = system: tau and truncated tau; assay: Tau and truncated tau levels; assay type: cell-based; conditions: FIG. 4A
[15] = system: tau-BiFC cells; assay: tau-BiFC cell assay of tau oligomerization; assay type: cell-based; conditions: okadaic acid induction, versus DMSO, FIG. 4B
Excerpt: This effect is because rapamycin attenuates the progression of tauopathy by inducing mTOR-dependent autophagy. […]. In order to visualize and quantify intracellular tau oligomerization, a tau cell line was used in combination with bimolecular fluorescence complementation (BiFC).
Referring to FIG. 4B, the amino-terminal and carboxyl-terminal portions of the Venus protein are independently fused to htau40 and irradiated with a basal fluorescence signal under normal conditions (first lane). However, when chemical induction of tau high-phosphorylation, such as okadaic acid, which is the same as that occurs as a result of tau oligomerization occurs, a strong fluorescence signal may be generated, and thus yellow fluorescent substances are observed in the samples in which tau protein is present (second lane). […].

[16] = molecular target: β-actin (Homo sapiens, UniProt P60709); assay: DARTS analysis, β-actin; conditions: FIG. 3A
Excerpt: The changes in the sensitivity to hydrolysis are observed using the DARTS method, and the DARTS method is a label-free detection method for target recognition and verification using changes in the sensitivity of proteins to hydrolysis caused by binding to small molecules.

[17] = system: HUVEC; assay: Cell ATP level, ATPlite luminescence assay system; conditions: treated for 0 to 360 minutes, FIG. 2A
[18] = system: EGFP-LC3 puncta; assay: EGFP-LC3 puncta with Compound C or upstream autophagy inhibitors; conditions: together with Compound C, FIG. 2C
[19] = system: LC3-II; assay: LC3-II level in presence and absence of lysosomal protease inhibitor E64D; conditions: FIG. 1E

Structure (SMILES): OC[C@H]1O[C@H](O[C@H]2O[C@H](CO)[C@@H](O)[C@H](O)[C@H]2O)[C@H](O)[C@@H](O)[C@@H]1O [trehalose]
- huntingtin aggregates / mutant huntingtin, motility, lifespan [1]: mutant huntingtin, motility, and lifespan in the brain of a mouse model have been improved

Structure (SMILES): C1COC(NC(C2CC2)C2CC2)=N1 [rilmenidine]
- huntingtin aggregates / mutant huntingtin, motility, lifespan [1]: huntingtin aggregates have been successfully removed

Structure (SMILES): CO/C1=C\C(C)=C\[C@@H](C)[C@@H](O)[C@@H](C)C/C(C)=C/C=C/[C@H](OC)[C@@H]([C@@H](C)[C@@H](O)[C@H](C)[C@@]2(O)C[C@@H](O)[C@H](C)[C@@H](C(C)C)O2)OC1=O [bafilomycin A]
- R value ([2]; GFP and mRFP fluorescence, FIG. 1F): 0.943
- levels of LC3-II and p62 over time [3]: increase within 24 hours and the high levels of the two types of proteins are maintained during the post-treatment time of 72 hours

Structure (SMILES): CNC1CC(c2ccc(Cl)c(Cl)c2)c2ccccc21 (stereo not drawn) [indatraline]
- LC3 induction in the cytoplasm [4]: induce LC3 in the cytoplasm
- LC3 expression [5]: express LC3
- ratio of p-AMPK/AMPK (phosphorylation level of AMPK) ([6]; FIG. 2A/2B): relatively high
- autophagy inducing activity in screening [7]: having autophagy inducing activity

Structure (SMILES): CN[C@H]1CC[C@@H](c2ccc(Cl)c(Cl)c2)c2ccccc21 [sertraline]
- induced amount of LC3 in the cytoplasm ([4]; 0.1 μM, 2 μM or 5 μM, FIG. 1B): LC3 is induced in the cytoplasm in proportion to the amount of sertraline administered
- LC3 induction in the cytoplasm [4]: induce LC3 in the cytoplasm similar to the case of being treated with indatraline
- LC3 expression [5]: express LC3
- R value [2]: 0.517
- density of acridine orange [8]: significantly increases the density of acridine orange
- phosphorylation of S6K ([6]; FIG. 2B): decreasing the phosphorylation level of mTOR and its downstream S6K
- nuclear translocation of TFEB [9]: not detected
- conversion to LC3-II [10]: induces conversion to LC3-II in both TFEB+/+ and TFEB−/− HeLa cells
- stability of VDAC1 against pronase [11]: increased stability
- AMPK/mTOR/S6K signaling in MEFs without VDAC1 ([12]; VDAC1−/− MEFs): does not modulate AMPK/mTOR/S6K signaling
- AMPK/mTOR/S6K signaling in wild-type MEFs ([12]; WT MEFs): significantly activates AMPK and inhibits mTOR/S6K phosphorylation
- EGFP-LC3 puncta, MEFs without VDAC versus wild-type MEFs [13]: significantly decrease
- tau and truncated tau [14]: significantly decreased
- tau aggregates [15]: significantly fewer tau aggregates than those in the cells treated with DMSO
- stability of β-actin against pronase [16]: degraded by pronase
- intracellular ATP level [17]: decreases in proportion to the time
- EGFP-LC3 puncta / induced autophagy on treatment with Compound C [18]: remarkably decrease
- levels of LC3-II and p62 over time [3]: increase rapidly for 24 hours, peak at the 48th hour, and then decrease from the 72th hour
- LC3-II level with E64D versus without E64D [19]: further increases
